Measured values from patent US9546156B2, “N-bicyclic aryl,N'-pyrazolyl urea, thiourea, guanidine cyanoguanidine compounds as TrkA kinase inhibitors” (Array BioPharma Inc., priority 2012, dated 2017).

Experiments:
Assay in all cases: Off-target kinase profiling (KinaseProfiler)
Type in all cases: biochemical
Conditions in all cases: 10 μM, ATP near Km
[1] = biological target: T1, AMPK(A1/B1/G1) (Homo sapiens, UniProt Q13131)
T1 construct: purchased Millipore, Inc. (KinaseProfiler service)
In short: (§1)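 Each enzyme was challenged with 10 μM inhibitor in the presence of ATP at roughly its Km. Two replicates were run, and their average is reported relative to an uninhibited control.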

[2] = biological target: T2, ARK5 (Homo sapiens, UniProt O60285)
T2 construct: purchased Millipore, Inc. (KinaseProfiler service)
In short: as §1

[3] = biological target: T3, Abl-P (Homo sapiens, UniProt P00519)
T3 construct: purchased Millipore, Inc. (KinaseProfiler service)
In short: as §1

[4] = biological target: T4, Axl (Homo sapiens, UniProt P30530)
T4 construct: purchased Millipore, Inc. (KinaseProfiler service)
In short: as §1

[5] = biological target: T5, BTK (Homo sapiens, UniProt Q06187)
T5 construct: purchased Millipore, Inc. (KinaseProfiler service)
In short: as §1

[6] = biological target: T6, CAMK2b (Homo sapiens, UniProt Q13554)
T6 construct: purchased Millipore, Inc. (KinaseProfiler service)
In short: as §1

[7] = biological target: T7, CDK2/cyclinA (Homo sapiens, UniProt P24941)
T7 construct: purchased Millipore, Inc. (KinaseProfiler service)
In short: as §1

[8] = biological target: T8, CHK1 (Homo sapiens, UniProt O14757)
T8 construct: purchased Millipore, Inc. (KinaseProfiler service)
In short: as §1

[9] = biological target: T9, CHK2 (Homo sapiens, UniProt O96017)
T9 construct: purchased Millipore, Inc. (KinaseProfiler service)
In short: as §1

[10] = biological target: T10, DAPK2 (Homo sapiens, UniProt Q9UIK4)
T10 construct: purchased Millipore, Inc. (KinaseProfiler service)
In short: as §1

[11] = biological target: T11, DCAMKL2 (Homo sapiens, UniProt Q8N568)
T11 construct: purchased Millipore, Inc. (KinaseProfiler service)
In short: as §1

[12] = biological target: T12, DYRK2 (Homo sapiens, UniProt Q92630)
T12 construct: purchased Millipore, Inc. (KinaseProfiler service)
In short: as §1

[13] = biological target: T13, EphA5 (Homo sapiens, UniProt P54756)
T13 construct: purchased Millipore, Inc. (KinaseProfiler service)
In short: as §1

[14] = biological target: T14, EphB2 (Homo sapiens, UniProt P29323)
T14 construct: purchased Millipore, Inc. (KinaseProfiler service)
In short: as §1

[15] = biological target: T15, FGFR2 (Homo sapiens, UniProt P21802)
T15 construct: purchased Millipore, Inc. (KinaseProfiler service)
In short: as §1

[16] = biological target: T16, Fes (Homo sapiens, UniProt P07332)
T16 construct: purchased Millipore, Inc. (KinaseProfiler service)
In short: as §1

[17] = biological target: T17, JNK1alpha1 (Homo sapiens, UniProt P45983)
T17 construct: purchased Millipore, Inc. (KinaseProfiler service)
In short: as §1

[18] = biological target: T18, LOK (Homo sapiens, UniProt O94804)
T18 construct: purchased Millipore, Inc. (KinaseProfiler service)
In short: as §1

[19] = biological target: T19, Lck (Homo sapiens, UniProt P06239)
T19 construct: purchased Millipore, Inc. (KinaseProfiler service)
In short: as §1

[20] = biological target: T20, MST3 (Homo sapiens, UniProt Q9Y6E0)
T20 construct: purchased Millipore, Inc. (KinaseProfiler service)
In short: as §1

[21] = biological target: T21, NEK11 (Homo sapiens, UniProt Q8NG66)
T21 construct: purchased Millipore, Inc. (KinaseProfiler service)
In short: as §1

[22] = biological target: T22, NEK3 (Homo sapiens, UniProt P51956)
T22 construct: purchased Millipore, Inc. (KinaseProfiler service)
In short: as §1

[23] = biological target: T23, PAK4 (Homo sapiens, UniProt O96013)
T23 construct: purchased Millipore, Inc. (KinaseProfiler service)
In short: as §1

[24] = biological target: T24, PKCalpha (Homo sapiens, UniProt P17252)
T24 construct: purchased Millipore, Inc. (KinaseProfiler service)
In short: as §1

[25] = biological target: T25, PKCbetaII (Homo sapiens, UniProt P05771)
T25 construct: purchased Millipore, Inc. (KinaseProfiler service)
In short: as §1

[26] = biological target: T26, PKCeta (Homo sapiens, UniProt P24723)
T26 construct: purchased Millipore, Inc. (KinaseProfiler service)
In short: as §1

[27] = biological target: T27, PKD1 (Homo sapiens, UniProt Q15139)
T27 construct: purchased Millipore, Inc. (KinaseProfiler service)
In short: as §1

[28] = biological target: T28, PRKG1alpha (Homo sapiens, UniProt Q13976)
T28 construct: purchased Millipore, Inc. (KinaseProfiler service)
In short: as §1

[29] = biological target: T29, Pim-1 (Homo sapiens, UniProt P11309)
T29 construct: purchased Millipore, Inc. (KinaseProfiler service)
In short: as §1

[30] = biological target: T30, Pim-2 (Homo sapiens, UniProt Q9P1W9)
T30 construct: purchased Millipore, Inc. (KinaseProfiler service)
In short: as §1

[31] = biological target: T31, Pim-3 (Homo sapiens, UniProt Q86V86)
T31 construct: purchased Millipore, Inc. (KinaseProfiler service)
In short: as §1

[32] = biological target: T32, Ros (Homo sapiens, UniProt P08922)
T32 construct: purchased Millipore, Inc. (KinaseProfiler service)
In short: as §1

[33] = biological target: T33, Rsk4 (Homo sapiens, UniProt Q9UK32)
T33 construct: purchased Millipore, Inc. (KinaseProfiler service)
In short: as §1

[34] = biological target: T34, SGK2 (Homo sapiens, UniProt Q9HBY8)
T34 construct: purchased Millipore, Inc. (KinaseProfiler service)
In short: as §1

[35] = biological target: T35, TSSK2 (Homo sapiens, UniProt Q96PF2)
T35 construct: purchased Millipore, Inc. (KinaseProfiler service)
In short: as §1

[36] = biological target: T36, TrkA (Homo sapiens, UniProt P04629)
T36 construct: purchased Millipore, Inc. (KinaseProfiler service)
In short: as §1

[37] = biological target: T37, TrkB (Homo sapiens, UniProt Q16620)
T37 construct: purchased Millipore, Inc. (KinaseProfiler service)
In short: as §1

[38] = biological target: T38, WNK3 (Homo sapiens, UniProt Q9BYP7)
T38 construct: purchased Millipore, Inc. (KinaseProfiler service)
In short: as §1

[39] = biological target: T39, Yes (Homo sapiens, UniProt P07947)
T39 construct: purchased Millipore, Inc. (KinaseProfiler service)
In short: as §1

[40] = biological target: T40, mTOR/FKBP12 (Homo sapiens, UniProt P42345)
T40 construct: purchased Millipore, Inc. (KinaseProfiler service)
In short: as §1

[41] = biological target: T41, p38gamma (Homo sapiens, UniProt P53778)
T41 construct: purchased Millipore, Inc. (KinaseProfiler service)
In short: as §1

T17 sequence (P45983 1-384 isoform P45983-2): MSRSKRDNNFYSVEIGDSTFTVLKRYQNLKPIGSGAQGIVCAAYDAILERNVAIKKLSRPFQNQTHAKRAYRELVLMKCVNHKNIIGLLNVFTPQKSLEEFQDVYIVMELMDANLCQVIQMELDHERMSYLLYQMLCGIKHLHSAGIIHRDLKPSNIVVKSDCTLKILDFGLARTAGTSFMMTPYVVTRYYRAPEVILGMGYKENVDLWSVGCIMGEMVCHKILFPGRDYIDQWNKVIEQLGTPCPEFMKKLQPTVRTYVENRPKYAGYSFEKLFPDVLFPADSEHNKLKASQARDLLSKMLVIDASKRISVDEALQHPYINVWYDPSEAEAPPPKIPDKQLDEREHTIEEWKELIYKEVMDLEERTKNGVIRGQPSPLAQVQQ
T25 sequence (P05771 1-673 isoform P05771-2): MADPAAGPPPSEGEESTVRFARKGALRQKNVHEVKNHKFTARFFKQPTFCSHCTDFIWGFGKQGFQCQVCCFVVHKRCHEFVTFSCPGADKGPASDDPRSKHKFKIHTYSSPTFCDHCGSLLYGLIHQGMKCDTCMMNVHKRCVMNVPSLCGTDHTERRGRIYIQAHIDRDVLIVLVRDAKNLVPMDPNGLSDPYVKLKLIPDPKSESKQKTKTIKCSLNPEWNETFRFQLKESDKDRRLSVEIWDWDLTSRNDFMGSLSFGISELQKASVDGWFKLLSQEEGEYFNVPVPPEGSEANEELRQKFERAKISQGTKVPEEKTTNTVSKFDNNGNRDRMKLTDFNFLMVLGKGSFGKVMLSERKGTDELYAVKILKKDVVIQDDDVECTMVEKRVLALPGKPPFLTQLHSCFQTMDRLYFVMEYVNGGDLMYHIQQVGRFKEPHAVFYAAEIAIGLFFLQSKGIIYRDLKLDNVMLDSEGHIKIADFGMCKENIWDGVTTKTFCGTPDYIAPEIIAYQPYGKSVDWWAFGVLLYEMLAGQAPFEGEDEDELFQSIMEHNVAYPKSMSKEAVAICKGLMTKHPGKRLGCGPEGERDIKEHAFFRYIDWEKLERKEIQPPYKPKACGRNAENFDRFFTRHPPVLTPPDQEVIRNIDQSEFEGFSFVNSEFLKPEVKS
T11 sequence (Q8N568 whole entry): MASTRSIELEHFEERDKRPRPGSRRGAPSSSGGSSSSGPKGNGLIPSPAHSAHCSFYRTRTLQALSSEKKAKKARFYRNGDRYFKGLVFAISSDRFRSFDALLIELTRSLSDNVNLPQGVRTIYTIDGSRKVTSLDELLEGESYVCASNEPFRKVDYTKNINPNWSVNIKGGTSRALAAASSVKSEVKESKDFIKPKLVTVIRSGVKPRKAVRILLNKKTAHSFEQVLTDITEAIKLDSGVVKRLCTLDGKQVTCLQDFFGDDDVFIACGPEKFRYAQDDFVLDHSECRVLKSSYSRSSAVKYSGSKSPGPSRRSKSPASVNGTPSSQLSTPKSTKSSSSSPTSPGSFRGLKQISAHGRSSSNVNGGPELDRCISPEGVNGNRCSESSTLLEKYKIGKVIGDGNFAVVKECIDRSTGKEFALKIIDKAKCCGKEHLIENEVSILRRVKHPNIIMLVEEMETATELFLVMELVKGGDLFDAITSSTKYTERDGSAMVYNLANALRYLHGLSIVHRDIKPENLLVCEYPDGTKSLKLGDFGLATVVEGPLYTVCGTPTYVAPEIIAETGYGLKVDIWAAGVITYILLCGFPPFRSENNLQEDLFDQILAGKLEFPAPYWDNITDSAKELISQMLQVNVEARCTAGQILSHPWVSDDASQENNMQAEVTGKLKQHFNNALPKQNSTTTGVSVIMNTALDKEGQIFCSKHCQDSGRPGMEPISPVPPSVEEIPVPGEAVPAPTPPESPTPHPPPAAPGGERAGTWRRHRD
T13 sequence (P54756 25-1037): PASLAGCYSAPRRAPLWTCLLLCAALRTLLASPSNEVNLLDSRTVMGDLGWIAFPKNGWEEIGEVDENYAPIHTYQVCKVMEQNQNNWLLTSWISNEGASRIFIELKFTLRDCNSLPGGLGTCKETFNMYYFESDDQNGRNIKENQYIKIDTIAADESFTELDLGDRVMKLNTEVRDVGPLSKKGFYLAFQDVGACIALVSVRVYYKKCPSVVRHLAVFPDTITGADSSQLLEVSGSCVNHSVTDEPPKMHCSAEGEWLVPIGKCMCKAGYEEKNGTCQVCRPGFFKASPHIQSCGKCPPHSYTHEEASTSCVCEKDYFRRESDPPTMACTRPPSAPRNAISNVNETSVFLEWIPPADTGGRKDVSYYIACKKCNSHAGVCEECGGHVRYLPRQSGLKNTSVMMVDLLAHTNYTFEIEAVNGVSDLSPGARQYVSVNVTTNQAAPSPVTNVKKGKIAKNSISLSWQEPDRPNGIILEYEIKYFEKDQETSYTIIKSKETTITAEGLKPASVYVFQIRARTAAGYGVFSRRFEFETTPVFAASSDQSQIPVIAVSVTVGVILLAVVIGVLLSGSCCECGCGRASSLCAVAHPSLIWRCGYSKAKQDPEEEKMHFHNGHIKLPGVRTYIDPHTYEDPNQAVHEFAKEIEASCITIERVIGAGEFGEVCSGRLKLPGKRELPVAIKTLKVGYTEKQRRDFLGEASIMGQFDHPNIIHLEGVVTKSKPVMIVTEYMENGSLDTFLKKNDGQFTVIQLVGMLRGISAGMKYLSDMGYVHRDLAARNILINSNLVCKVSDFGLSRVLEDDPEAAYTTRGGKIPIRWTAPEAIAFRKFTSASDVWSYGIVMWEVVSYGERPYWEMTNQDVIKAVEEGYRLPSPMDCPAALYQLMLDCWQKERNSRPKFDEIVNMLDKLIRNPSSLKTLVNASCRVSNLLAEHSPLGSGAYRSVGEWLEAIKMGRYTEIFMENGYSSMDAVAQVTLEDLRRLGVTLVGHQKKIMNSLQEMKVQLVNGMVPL
T20 sequence (Q9Y6E0 whole entry): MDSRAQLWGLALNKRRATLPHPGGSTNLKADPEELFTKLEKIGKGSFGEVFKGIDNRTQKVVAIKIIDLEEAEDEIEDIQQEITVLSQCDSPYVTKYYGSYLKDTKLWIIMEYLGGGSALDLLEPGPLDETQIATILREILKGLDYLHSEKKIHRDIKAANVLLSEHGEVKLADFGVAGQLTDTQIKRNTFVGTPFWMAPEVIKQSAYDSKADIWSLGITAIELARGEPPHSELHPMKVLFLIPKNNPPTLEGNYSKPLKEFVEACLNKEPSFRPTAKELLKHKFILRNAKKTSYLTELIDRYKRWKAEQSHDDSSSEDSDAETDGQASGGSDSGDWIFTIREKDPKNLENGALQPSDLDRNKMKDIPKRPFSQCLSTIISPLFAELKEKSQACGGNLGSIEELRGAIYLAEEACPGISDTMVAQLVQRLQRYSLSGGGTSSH
T29 sequence (P11309 whole entry): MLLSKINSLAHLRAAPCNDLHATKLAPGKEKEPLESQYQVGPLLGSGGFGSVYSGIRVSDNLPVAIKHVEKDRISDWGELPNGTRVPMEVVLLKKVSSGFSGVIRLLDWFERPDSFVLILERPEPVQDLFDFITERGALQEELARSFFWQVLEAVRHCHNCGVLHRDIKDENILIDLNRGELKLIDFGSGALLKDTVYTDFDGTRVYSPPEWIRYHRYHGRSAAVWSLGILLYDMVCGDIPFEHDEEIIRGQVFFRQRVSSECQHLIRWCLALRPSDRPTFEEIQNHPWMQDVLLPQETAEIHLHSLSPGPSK
T5 sequence (Q06187 whole entry): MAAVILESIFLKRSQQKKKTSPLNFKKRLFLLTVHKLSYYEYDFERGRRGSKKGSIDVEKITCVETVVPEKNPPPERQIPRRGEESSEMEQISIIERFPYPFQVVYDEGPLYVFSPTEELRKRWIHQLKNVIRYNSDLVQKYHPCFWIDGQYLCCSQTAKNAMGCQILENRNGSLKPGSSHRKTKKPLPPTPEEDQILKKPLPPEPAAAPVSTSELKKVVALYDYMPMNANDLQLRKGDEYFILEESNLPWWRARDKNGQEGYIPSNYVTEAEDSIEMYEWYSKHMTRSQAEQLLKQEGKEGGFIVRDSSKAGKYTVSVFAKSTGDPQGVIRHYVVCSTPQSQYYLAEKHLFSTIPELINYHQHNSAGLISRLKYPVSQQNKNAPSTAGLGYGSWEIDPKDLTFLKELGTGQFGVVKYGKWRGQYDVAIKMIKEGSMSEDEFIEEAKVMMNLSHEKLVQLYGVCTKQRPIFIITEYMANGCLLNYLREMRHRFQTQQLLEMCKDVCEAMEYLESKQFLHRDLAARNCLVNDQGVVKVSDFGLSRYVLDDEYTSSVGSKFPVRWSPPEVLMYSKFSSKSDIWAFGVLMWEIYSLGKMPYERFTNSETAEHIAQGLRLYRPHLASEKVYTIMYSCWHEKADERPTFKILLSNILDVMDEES
T28 sequence (Q13976 whole entry): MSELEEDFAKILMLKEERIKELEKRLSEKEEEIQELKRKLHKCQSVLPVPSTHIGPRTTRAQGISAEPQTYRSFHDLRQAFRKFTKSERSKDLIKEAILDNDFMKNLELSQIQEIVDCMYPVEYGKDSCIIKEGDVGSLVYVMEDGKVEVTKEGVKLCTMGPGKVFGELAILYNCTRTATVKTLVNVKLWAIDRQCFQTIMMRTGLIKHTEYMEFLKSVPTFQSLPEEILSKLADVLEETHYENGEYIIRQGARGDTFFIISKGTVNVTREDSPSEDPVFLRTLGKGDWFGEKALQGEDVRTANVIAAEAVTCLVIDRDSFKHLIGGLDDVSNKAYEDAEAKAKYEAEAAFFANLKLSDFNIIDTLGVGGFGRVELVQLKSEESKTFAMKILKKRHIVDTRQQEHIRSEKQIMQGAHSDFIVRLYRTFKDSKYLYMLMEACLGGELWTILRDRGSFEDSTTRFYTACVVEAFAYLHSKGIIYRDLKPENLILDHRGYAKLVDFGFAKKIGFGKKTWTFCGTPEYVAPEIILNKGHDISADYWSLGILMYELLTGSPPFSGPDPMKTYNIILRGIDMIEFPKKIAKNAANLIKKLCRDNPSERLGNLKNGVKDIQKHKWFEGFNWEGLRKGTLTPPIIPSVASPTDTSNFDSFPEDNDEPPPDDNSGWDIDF

Structure (SMILES): COCc1ccc2cccc(NC(=O)Nc3c(C)c(-c4cnn(C)c4)nn3-c3ccccc3)c2c1 [Example 16, 1-(1′,4-dimethyl-1-phenyl-1H,1′H-[3,4′-bipyrazol]-5-yl)-3-(7-(methoxymethyl)naphthalen-1-yl)urea]
- Avg POC [1]: 134.5 POC
- Avg POC [2]: 103.5 POC
- Avg POC [3]: 147 POC
- Avg POC [4]: 103.5 POC
- Avg POC [5]: 121.5 POC
- Avg POC [6]: 105 POC
- Avg POC [7]: 136 POC
- Avg POC [8]: 139.5 POC
- Avg POC [9]: 110.5 POC
- Avg POC [10]: 105.5 POC
- Avg POC [11]: 175 POC
- Avg POC [12]: 99 POC
- Avg POC [13]: 118.5 POC
- Avg POC [14]: 109 POC
- Avg POC [15]: 110 POC
- Avg POC [16]: 117.5 POC
- Avg POC [17]: 111.5 POC
- Avg POC [18]: 120.5 POC
- Avg POC [19]: 103 POC
- Avg POC [20]: 135 POC
- Avg POC [21]: 116 POC
- Avg POC [22]: 122 POC
- Avg POC [23]: 112.5 POC
- Avg POC [24]: 97 POC
- Avg POC [25]: 106.5 POC
- Avg POC [26]: 122 POC
- Avg POC [27]: 117.5 POC
- Avg POC [28]: 109.5 POC
- Avg POC [29]: 124.5 POC
- Avg POC [30]: 141.5 POC
- Avg POC [31]: 113.5 POC
- Avg POC [32]: 117.5 POC
- Avg POC [33]: 126.5 POC
- Avg POC [34]: 147.5 POC
- Avg POC [35]: 134 POC
- Avg POC [36]: 2 POC
- Avg POC [37]: 9 POC
- Avg POC [38]: 122 POC
- Avg POC [39]: 107.5 POC
- Avg POC [40]: 113 POC
- Avg POC [41]: 116 POC
